The structures appear in SMILES notation. Where two headings read alike, the source gives them in different places.

These results are taken from EP2951180B1, “2,6,7,8 SUBSTITUTED PURINES AS HDM2 INHIBITORS” (Merck Sharp & Dohme Corp., priority 2013, dated 2014).

In this assay the target is T1, HDM2 (Homo sapiens, UniProt Q00987).
T1 construct: Thioredoxin (N); made in house; host or cells: E. coli strain BL21(DE3)Rosetta
Description: HDM2 FRET assay (inhibition of binding of FITC labeled p53-pocket peptide to HDM2). The settings on record: for IC50: read-out: FRET IC50; for inhibition at 1 µM: read-out: inh. at 1000 nM (FRET). Put shortly: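 TR-FRET with 0.5 nM His-tagged recombinant HDM2, 3 nM FITC-labelled p53 peptide and 0.25 nM Tb-anti-His antibody in PBS, 0.01% BSA, 0.01% Tween-20, 0.1% DMSO. IC50 from em520/em495 ratio over 10-point dilutions, 4-parameter logistic fit.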

Where [1] appears, read: 0.5 nM HDM2 (residues 17 to 125), 3nM peptide, two hour incubation at room temperature.

T1 sequence (Q00987 17-125): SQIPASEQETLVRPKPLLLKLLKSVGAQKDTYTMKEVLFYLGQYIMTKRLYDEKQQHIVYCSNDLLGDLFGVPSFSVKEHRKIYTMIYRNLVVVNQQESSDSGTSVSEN

Usually IC50 stands for the concentration at which inhibition is half-maximal. For `C[C@@H](Nc1nc(C(=O)O)nc2nc(C3CCCCC3c3ccccc3)n(Cc3ccc(C(F)(F)F)cc3)c12)C1CCC1` (single isomer, unassigned) [Example 21.1], the IC50 (Table 21) turned out to be 10.2 nM.

For `C[C@@H](Nc1nc(-c2noc(=O)[nH]2)nc2nc(N3CCOC[C@H]3c3ccccc3)n(Cc3ccc(C(F)(F)F)cc3)c12)C1CCC1` [Example 9.57, 3-(6-{[(1R)-1-cyclobutylethyl]amino}-8-[(3R)-3-phenylmorpholin-4-yl]-7-[4-(trifluoromethyl)benzyl]-7H-purin-2-yl)-1,2,4-oxadiazol-5(4H)-one], under “Table 9”, the IC50 amounted to 1.72 nM.

Consider `C[C@@H]1COCCN1c1nc2nc(-c3noc(=O)[nH]3)nc(N[C@H](C)C3CCC3)c2n1Cc1ccc(C(F)(F)F)cc1` [Example 9.125, 3-(6-{[(1R)-1-cyclobutylethyl]amino}-8-[(3R)-3-methylmorpholin-4-yl]-7-[4-(trifluoromethyl)benzyl]-7H-purin-2-yl)-1,2,4-oxadiazol-5(4H)-one], for which the IC50 (Table 9) was 6.72 nM.

Turning to `C[C@@H](Nc1nc(-c2noc(=O)[nH]2)nc2nc(N(C)CCCN3CCCC3)n(Cc3ccc(C(F)(F)F)cc3)c12)C1CCC1` [Example 9.100, 3-(6-{[(1R)-1-cyclobutylethyl]amino}-8-[methyl(3-pyrrolidin-1-ylpropyl)amino]-7-[4-(trifluoromethyl)benzyl]-7H-purin-2-yl)-1,2,4-oxadiazol-5(4H)-one], the IC50 (Table 9) was determined as 148 nM.

Consider `C=CCN(c1nc2nc(C(=O)O)nc(N[C@H](C)C3CCC3)c2n1Cc1ccc(C(F)(F)F)cc1)[C@@H](C)c1cccc(F)c1` [Example 10.27, 8-(Allyl((S)-1-(3-fluorophenyl)ethyl)amino)-6-(((R)-1-cyclobutylethyl)amino)-7-(4-(trifluoromethyl)benzyl)-7H-purine-2-carboxylic acid], for which, for the setting “Table 10”, the half-inhibitory concentration (IC50) turned out to be 9.84 nM.

Take `CCOc1nc(C(=O)O)nc2nc(-c3cccc(C)c3)n(Cc3ccc(C(F)(F)F)cc3)c12` [Example 17.1, 6-ethoxy-8-(3-methylphenyl)-7-[4-(trifluoromethyl)benzyl]-7H-purine-2-carboxylic acid]: the concentration for half-maximal inhibition (IC50) under setting [1] was determined as 5900 nM.

Regarding `C[C@@H](Nc1nc(-c2noc(=O)[nH]2)nc2nc(N3CCOCC3c3ccccc3Cl)n(C[C@H]3CC[C@H](C)CC3)c12)C1CCC1` (stereo partly drawn) [Example 11.100, 3-{8-[3-(2-chlorophenyl)morpholin-4-yl]-6-{[(1R)-1-cyclobutylethyl]amino}-7-[(trans-4-methylcyclohexyl)methyl]-7H-purin-2-yl}-1,2,4-oxadiazol-5(4H)-one], the IC50 (Table 11) amounted to 0.936 nM.

Take `C[C@@H](Nc1nc(C(=O)O)nc2nc(N3CCCCC3Cc3ccc(F)cc3)n(Cc3ccc(C(F)(F)F)cc3)c12)C1CCC1` (stereo partly drawn) [Example 9.69, 6-{[(1R)-1-cyclobutylethyl]amino}-8-[2-(4-fluorobenzyl)piperidin-1-yl]-7-[4-(trifluoromethyl)benzyl]-7H-purine-2-carboxylic acid]: the IC50 (Table 9) was 7.92 nM.

As for `C[C@@H](Nc1nc(C(=O)O)nc2nc(N3CCc4ccccc4C3)n(C[C@H]3CC[C@H](C)CC3)c12)C1CCC1` [Example 11.17, 6-{[(1R)-1-cyclobutylethyl]amino}-8-(3,4-dihydroisoquinolin-2(1H)-yl)-7-[(trans-4-methylcyclohexyl)methyl]-7H-purine-2-carboxylic acid], for the setting “Table 11”, the IC50 was 17.9 nM.

As to `C[C@@H]1OCCN(c2nc3nc(-c4n[nH]c(=O)o4)nc(-c4cncc(Cl)c4)c3n2C[C@H]2CC[C@H](C)CC2)[C@@H]1C` [Example 16.103, 5-{6-(5-chloropyridin-3-yl)-8-[(2S,3R)-2,3-dimethylmorpholin-4-yl]-7-[(trans-4-methylcyclohexyl)methyl]-7H-purin-2-yl}-1,3,4-oxadiazol-2(3H)-one], the IC50 under setting [1] was found to be 140 nM.

Turning to `C[C@@H](Nc1nc(-c2noc(=O)[nH]2)nc2nc(C3(c4ccccc4)CCC3)n(C[C@H]3CC[C@H](C)CC3)c12)C1CCC1` [Example 20.8, 3-[6-{[(1R)-1-cyclobutylethyl]amino}-7-[(trans-4-methylcyclohexyl)methyl]-8-(1-phenylcyclobutyl)-7H-purin-2-yl]-1,2,4-oxadiazol-5(4H)-one], the IC50 (Table 20) amounted to 5.96 nM.

Consider `CC(C)CN(C)c1nc2nc(C(=O)O)nc(N[C@H](C)C3CCC3)c2n1C[C@H]1CC[C@H](C)CC1` [Example 11.30, 6-{[(1R)-1-cyclobutylethyl]amino}-7-[(trans-4-methylcyclohexyl)methyl]-8-[methyl(2-methylpropyl)amino] -7H-purine-2-carboxylic acid], for which, for the setting “Table 11”, the IC50 was found to be 1.65 nM.

As to `C[C@@H](Nc1nc(C(=O)O)nc2nc(-c3cc(C(C)(C)C)ccn3)n(C[C@H]3CC[C@H](C)CC3)c12)C1CCC1` [Example 15.16, 8-(4-tert-butylpyridin-2-yl)-6-{[(1R)-1-cyclobutylethyl]amino}-7-[(trans-4-methylcyclohexyl)methyl]-7H-purine-2-carboxylic acid], the IC50 under setting [1] was 1.04 nM.

Take `C[C@H](O)[C@H](Nc1nc2nc(-c3n[nH]c(=O)o3)nc(-c3cccc(Cl)c3)c2n1C[C@H]1CC[C@H](C)CC1)c1ccccc1` [Example 16.57, 5-{6-(3-chlorophenyl)-8-{[(1R,2S)-2-hydroxy-1-phenylpropyl]amino} -7-[(trans-4-methylcyclohexyl)methyl]-7H-purin-2-yl}-1,3,4-oxadiazol-2(3H)-one]: the IC50 under setting [1] came to 5.54 nM.

In the case of `CC(Nc1nc2nc(-c3noc(=O)[nH]3)nc(N[C@H](C)C3CCC3)c2n1C[C@H]1CC[C@H](C)CC1)c1cncnc1` (stereo partly drawn) [Example 11.85, 3-(6-{[(1R)-1-cyclobutylethyl]amino}-7-[(trans-4-methylcyclohexyl)methyl]-8-[(1-pyrimidin-5-ylethyl)amino]-7H-purin-2-yl)-1,2,4-oxadiazol-5(2H)-one], the IC50 (Table 11) turned out to be 4.97 nM.

`Cc1noc([C@@H]2COCCN2c2nc3nc(-c4noc(=O)[nH]4)nc(-c4cccc(Cl)c4)c3n2C[C@H]2CC[C@H](C)CC2)n1` [Example 16.116, 3-{6-(3-chlorophenyl)-7-[(trans-4-methylcyclohexyl)methyl]-8-[(3S)-3-(3-methyl-1,2,4-oxadiazol-5-yl)morpholin-4-yl]-7H-purin-2-yl}-1,2,4-oxadiazol-5(4H)-one]: under setting [1], the IC50 came out at 7.26 nM.

As for `C[C@@H](Nc1nc(C(=O)O)nc2nc(N3CCC3c3ccccc3)n(Cc3ccc(C(F)(F)F)cc3)c12)C1CCC1` (stereo partly drawn) [Example 9.54, 6-{[(1R)-1-cyclobutylethyl]amino}-8-(2-phenylazetidin-1-yl)-7-[4-(trifluoromethyl)benzyl]-7H-purine-2-carboxylic acid], under “Table 9”, the IC50 was 23.9 nM.

As to `Cc1cccc(-c2nc3nc(C(=O)O)nc(N(C)CCC(C)C)c3n2Cc2ccc(C(F)(F)F)cc2)c1` [Example 6.77, 6-[methyl(3-methylbutyl)amino]-8-(3-methylphenyl)-7-[4-(trifluoromethyl)benzyl]-7H-purine-2-carboxylic acid], the inhibition at 1 µM stood at 36%.

`Cc1cccc(-c2nc3nc(C(=O)O)nc(N4CCCC4C(C)(C)C)c3n2Cc2ccc(C(F)(F)F)cc2)c1` (centres unmarked) [Example 6.87, 6-(2-tert-butylpyrrolidin-1-yl)-8-(3-methylphenyl)-7-[4-(trifluoromethyl)benzyl]-7H-purine-2-carboxylic acid]: the inhibition at 1 µM is 43%.

On to `CC[C@H]1CC[C@H](Cn2c(N3CCOCC3)nc3nc(C(=O)O)nc(N[C@H](C)C4CCC4)c32)CC1` [Example 18.19, 6-{[(1R)-1-cyclobutylethyl]amino}-7-[(trans-4-ethylcyclohexyl)methyl]-8-morpholin-4-yl-7H-purine-2-carboxylic acid], for which the IC50 (Table 18) amounted to 13.1 nM.

As to `C[C@@H]1OCCN(c2nc3nc(-c4n[nH]c(=O)o4)nc(N[C@H](C)C4CCC4)c3n2C[C@H]2CC[C@H](C)CC2)[C@H]1C` (stereo in doubt) [Example 11.167, 5-(6-{[(1R)-1-cyclobutylethyl]amino}-8-[(trans)-2,3-dimethylmorpholin-4-yl]-7-[(trans-4-methylcyclohexyl)methyl]-7H-purin-2-yl)-1,3,4-oxadiazol-2(3H)-one], the IC50 (Table 11) was 2.16 nM.

For the compound `C[C@@H](Nc1nc(-c2n[nH]c(=O)o2)nc2nc(N3CCOC4CCCCC43)n(C[C@H]3CC[C@H](C)CC3)c12)C1CCC1` (single isomer, unassigned) [Example 11.125], the IC50 (Table 11) worked out at 7.49 nM.

In the case of `CC(C)c1ccnc(-c2nc3nc(C(=O)O)nc(N[C@@H](c4ccccc4)C4CCC4)c3n2Cc2ccc(C(F)(F)F)cc2)c1` [Example 6.57, 6-{[(R)-cyclobutyl(phenyl)methyl]amino}-8-[4-(1-methylethyl)pyridin-2-yl]-7-[4-(trifluoromethyl)benzyl]-7H-purine-2-carboxylic acid], the IC50 (Table 6) stood at 1060 nM.

`C[C@@H](Nc1nc(-c2noc(=O)[nH]2)nc2nc(N3CCOCC(F)(F)C3)n(C[C@H]3CC[C@H](C)CC3)c12)C1CCC1` [Example 11.104, 3-(6-{[(1R)-1-cyclobutylethyl]amino}-8-(6,6-difluoro-1,4-oxazepan-4-yl)-7-[(trans-4-methylcyclohexyl)methyl]-7H-purin-2-yl)-1,2,4-oxadiazol-5(2H)-one]: for the setting “Table 11”, the IC50 is 9.24 nM.

For the compound `CC[C@H]1CC[C@H](Cn2c(-c3cc(C)ccc3OC)nc3nc(C(=O)O)nc(N[C@H](C)C4CCC4)c32)CC1` [Example 18.16, 6-{[(1R)-1-cyclobutylethyl]amino}-7-[(trans-4-ethylcyclohexyl)methyl]-8-(2-methoxy-5-methylphenyl)-7H-purine-2-carboxylic acid], the IC50 (Table 18) was found to be 31.8 nM.

For `C[C@@H](Nc1nc(-c2nnnn2C)nc2nc(N3CCOC[C@H]3c3ccccc3)n(C[C@H]3CC[C@H](C)CC3)c12)C1CCC1` [Example 12.12, N-[(1R)-1-cyclobutylethyl]-7-[(trans-4-methylcyclohexyl)methyl]-2-(1-methyl-1H-tetrazol-5-yl)-8-[(3R)-3-phenylmorpholin-4-yl]-7H-purin-6-amine], the IC50 under setting [1] was determined as 27.3 nM.
